Patent US12264156B2, “Compounds and pharmaceutical compositions thereof for the treatment of diseases” (GALAPAGOS NV, priority 2018, dated 2025)

Columns and labels:
Type in all cases: biochemical
Settings in all cases: ADP-Glo SIK kinase assay
SIK1 = biological target: T1, SIK1 (Homo sapiens, UniProt P57059); test: ADP-Glo kinase assay, SIK1
T1 construct: purchased Carna Biosciences 02-131
In short: (§1)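 ADP-Glo, RT throughout. Enz/substrate + ATP, 120 min; ADP-Glo reagent 40 min (ATP depletion); detection reagent 30 min; luminescence read. Neg ctrl 1% DMSO, pos ctrl 10 μM staurosporine, final concs.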

SIK2 = biological target: T2, SIK2 (Homo sapiens, UniProt Q9H0K1); test: ADP-Glo kinase assay, SIK2
T2 construct: purchased ThermoFisher Scientific PV4792
T2 sequence (Q9H0K1 whole entry): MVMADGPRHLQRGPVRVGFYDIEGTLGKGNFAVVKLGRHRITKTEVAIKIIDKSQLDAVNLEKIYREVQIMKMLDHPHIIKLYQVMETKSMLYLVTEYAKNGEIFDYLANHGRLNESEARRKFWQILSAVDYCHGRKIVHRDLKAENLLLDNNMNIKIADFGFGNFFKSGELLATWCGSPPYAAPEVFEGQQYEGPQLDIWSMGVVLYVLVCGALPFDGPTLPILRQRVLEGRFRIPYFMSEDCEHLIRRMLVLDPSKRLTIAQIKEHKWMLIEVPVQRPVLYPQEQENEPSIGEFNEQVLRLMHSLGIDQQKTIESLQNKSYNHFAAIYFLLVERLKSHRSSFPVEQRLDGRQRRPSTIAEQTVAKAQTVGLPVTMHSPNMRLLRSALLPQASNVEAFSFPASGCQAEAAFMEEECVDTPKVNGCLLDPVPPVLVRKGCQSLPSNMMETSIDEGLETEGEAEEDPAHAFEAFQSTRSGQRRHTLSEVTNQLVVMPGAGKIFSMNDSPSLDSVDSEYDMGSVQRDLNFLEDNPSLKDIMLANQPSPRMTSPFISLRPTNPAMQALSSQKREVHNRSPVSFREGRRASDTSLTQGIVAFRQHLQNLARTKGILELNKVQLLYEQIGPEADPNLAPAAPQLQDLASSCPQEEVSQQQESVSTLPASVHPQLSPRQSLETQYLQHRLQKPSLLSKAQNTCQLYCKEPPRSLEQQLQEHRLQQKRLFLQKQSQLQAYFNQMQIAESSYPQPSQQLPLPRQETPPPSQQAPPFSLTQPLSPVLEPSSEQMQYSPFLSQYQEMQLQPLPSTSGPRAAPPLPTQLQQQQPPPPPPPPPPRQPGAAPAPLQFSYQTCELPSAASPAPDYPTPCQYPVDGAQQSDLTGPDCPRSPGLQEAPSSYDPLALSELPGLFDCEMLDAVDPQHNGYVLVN
In short: as §1

SIK3 = biological target: T3, SIK3 (Homo sapiens, UniProt Q9Y2K2); test: ADP-Glo kinase assay, SIK3
T3 construct: purchased SignalChem S12-11G-100
T3 sequence (Q9Y2K2 whole entry): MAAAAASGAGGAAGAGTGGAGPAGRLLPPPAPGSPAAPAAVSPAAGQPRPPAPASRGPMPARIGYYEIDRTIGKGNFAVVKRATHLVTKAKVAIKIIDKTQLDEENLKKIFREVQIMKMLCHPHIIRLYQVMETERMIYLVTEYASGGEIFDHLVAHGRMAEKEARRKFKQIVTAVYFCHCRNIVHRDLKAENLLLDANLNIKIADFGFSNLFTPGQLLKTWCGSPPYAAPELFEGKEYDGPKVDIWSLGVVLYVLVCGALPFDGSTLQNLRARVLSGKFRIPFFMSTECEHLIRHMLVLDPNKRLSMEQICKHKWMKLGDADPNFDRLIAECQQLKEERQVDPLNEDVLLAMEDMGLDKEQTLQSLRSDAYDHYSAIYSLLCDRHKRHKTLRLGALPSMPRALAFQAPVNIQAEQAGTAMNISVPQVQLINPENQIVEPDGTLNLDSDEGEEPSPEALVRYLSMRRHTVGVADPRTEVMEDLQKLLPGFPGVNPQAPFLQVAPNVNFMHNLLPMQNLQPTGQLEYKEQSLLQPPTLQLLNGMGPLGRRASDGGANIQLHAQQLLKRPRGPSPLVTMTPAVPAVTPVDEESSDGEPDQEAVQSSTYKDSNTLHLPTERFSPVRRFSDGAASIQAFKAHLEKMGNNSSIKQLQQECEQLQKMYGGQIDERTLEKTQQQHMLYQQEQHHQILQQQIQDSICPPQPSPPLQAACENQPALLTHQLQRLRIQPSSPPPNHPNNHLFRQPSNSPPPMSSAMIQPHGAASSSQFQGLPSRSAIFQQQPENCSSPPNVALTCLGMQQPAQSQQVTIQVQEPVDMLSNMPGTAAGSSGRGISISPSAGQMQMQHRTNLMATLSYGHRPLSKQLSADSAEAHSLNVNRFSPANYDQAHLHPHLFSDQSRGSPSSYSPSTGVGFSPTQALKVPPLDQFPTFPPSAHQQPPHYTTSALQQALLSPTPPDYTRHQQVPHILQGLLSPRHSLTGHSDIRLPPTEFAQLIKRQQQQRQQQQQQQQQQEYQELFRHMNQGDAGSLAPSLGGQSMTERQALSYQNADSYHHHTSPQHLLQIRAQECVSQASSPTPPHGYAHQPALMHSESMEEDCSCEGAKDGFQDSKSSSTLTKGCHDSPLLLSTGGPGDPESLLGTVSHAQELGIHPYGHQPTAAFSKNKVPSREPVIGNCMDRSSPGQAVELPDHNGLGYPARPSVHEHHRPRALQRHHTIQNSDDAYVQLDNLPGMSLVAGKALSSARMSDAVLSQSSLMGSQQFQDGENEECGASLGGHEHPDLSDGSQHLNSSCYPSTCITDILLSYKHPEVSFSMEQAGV
In short: as §1

T1 sequence (P57059 whole entry): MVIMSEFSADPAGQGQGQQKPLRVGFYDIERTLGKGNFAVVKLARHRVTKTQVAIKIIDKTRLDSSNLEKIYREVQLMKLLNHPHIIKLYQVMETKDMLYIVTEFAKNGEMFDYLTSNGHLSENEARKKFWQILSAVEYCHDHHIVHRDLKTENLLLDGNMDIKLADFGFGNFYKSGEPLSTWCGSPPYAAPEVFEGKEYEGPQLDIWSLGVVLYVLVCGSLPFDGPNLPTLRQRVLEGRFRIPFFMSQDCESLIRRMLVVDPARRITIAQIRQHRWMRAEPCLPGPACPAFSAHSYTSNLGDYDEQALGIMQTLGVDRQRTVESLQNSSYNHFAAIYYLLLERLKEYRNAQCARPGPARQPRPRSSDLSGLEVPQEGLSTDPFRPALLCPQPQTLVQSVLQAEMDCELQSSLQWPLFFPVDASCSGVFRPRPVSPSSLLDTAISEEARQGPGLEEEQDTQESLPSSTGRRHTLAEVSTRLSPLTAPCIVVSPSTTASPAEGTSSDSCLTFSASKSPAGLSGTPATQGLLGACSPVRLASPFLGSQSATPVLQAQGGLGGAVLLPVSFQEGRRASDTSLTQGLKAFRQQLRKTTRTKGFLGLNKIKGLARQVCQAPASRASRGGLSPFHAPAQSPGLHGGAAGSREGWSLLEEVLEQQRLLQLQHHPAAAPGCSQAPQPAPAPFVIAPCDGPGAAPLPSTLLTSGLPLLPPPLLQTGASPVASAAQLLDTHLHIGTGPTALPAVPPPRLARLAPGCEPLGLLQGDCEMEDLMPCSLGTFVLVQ

IC50 (SIK1) [nM]	IC50 (SIK2) [nM]	IC50 (SIK3) [nM]	Compound
> 500	10 to 100	0.01 to 10	COc1cc(-c2cnc3cc(OC4CCCN(C)C4)ccn23)cc(OC(F)F)c1C(=O)NC1CC1 (stereo not drawn) [compound 2, N-cyclopropyl-2-(difluoromethoxy)-6-methoxy-4-[7-[(1-methyl-3-piperidyl)oxy]imidazo [1,2-a]pyridin-3-yl]benzamide]
0.01 to 10	0.01 to 10	0.01 to 10	COc1cc(-c2cnc3cc(OCc4ccccc4)ccn23)cc(OC(F)F)c1C(=O)NC1CC1 [compound 68, 4-(7-benzyloxyimidazo[1,2-a]pyridin-3-yl)-N-cyclopropyl-2-(difluoromethoxy)-6-methoxy-benzamide]
100 to 500	10 to 100	0.01 to 10	COc1cc(-c2cnc3cc(OCc4ccccc4)ncn23)cc(OC(F)F)c1C(=O)NC1CC1 [Cpd 159, 4-(7-benzyloxyimidazo[1,2-c]pyrimidin-3-yl)-N-cyclopropyl-2-(difluoromethoxy)-6-methoxy-benzamide]
10 to 100	0.01 to 10	0.01 to 10	COc1cc(-c2cnc3cc(OCc4ncco4)ccn23)cc(OC(F)F)c1C(=O)NC1CC1 [compound 32, N-cyclopropyl-2-(difluoromethoxy)-6-methoxy-4-[7-(oxazol-2-ylmethoxy)imidazo[1,2-a]pyridin-3-yl]benzamide]
0.01 to 10	0.01 to 10	0.01 to 10	COC(=O)N1CCCCC1COc1ccn2c(-c3cc(OC)c(C(=O)NC4CC4)c(OC(F)F)c3)cnc2c1 (stereo not drawn) [Cpd 130, methyl 2-[[3-[4-(cyclopropylcarbamoyl)-3-(difluoromethoxy)-5-methoxy-phenyl]imidazo[1,2-a]pyridin-7-yl]oxymethyl]piperidine-1-carboxylate]
10 to 100	0.01 to 10	0.01 to 10	COc1cc(-c2cnc3cc(OCCN4CCC(F)(F)CC4)ccn23)cc(OC(F)F)c1C(=O)NC1CC1 [Cpd 181, N-cyclopropyl-2-(difluoromethoxy)-4-[7-[2-(4,4-difluoro-1-piperidyl)ethoxy]imidazo [1,2-a]pyridin-3-yl]-6-methoxy-benzamide]
10 to 100	0.01 to 10	0.01 to 10	COc1cc(-c2cnc3cc(OC[C@H]4CCN(CCO)C4)ccn23)cc(OC(F)F)c1C(=O)NC1CC1 [Cpd 341, N-cyclopropyl-2-(difluoromethoxy)-4-[7-[[(3S)-1-(2-hydroxyethyl)pyrrolidin-3-yl]methoxy]imidazo[1,2-a]pyridin-3-yl]-6-methoxy-benzamide]
10 to 100	0.01 to 10	0.01 to 10	COc1cc(-c2cnc3cc(OCC(N)C4CC4)ccn23)cc(OC(F)F)c1C(=O)NC1CC1 (stereo not drawn) [compound 137, 4-[7-(2-amino-2-cyclopropyl-ethoxy)imidazo[1,2-a]pyridin-3-yl]-N-cyclopropyl-2-(difluoromethoxy)-6-methoxy-benzamide]
0.01 to 10	0.01 to 10	0.01 to 10	COc1cc(-c2cnc3cc(OCC4CC4(F)F)ccn23)cc(OC(F)F)c1C(=O)NC1CC1 (stereo not drawn) [compound 42, N-cyclopropyl-4-[7-[(2,2-difluorocyclopropyl)methoxy]imidazo[1,2-a]pyridin-3-yl]-2-(difluoromethoxy)-6-methoxy-benzamide]
10 to 100	0.01 to 10	0.01 to 10	COc1cc(-c2cnc3cc(OCCF)ccn23)cc(OC(F)F)c1C(=O)NC1CC1 [compound 36, N-cyclopropyl-2-(difluoromethoxy)-4-[7-(2-fluoroethoxy)imidazo[1,2-a]pyridin-3-yl]-6-methoxy-benzamide]
10 to 100	0.01 to 10	0.01 to 10	COc1cc(-c2cnc3cc(OCC4(C)CNC4)ccn23)cc(OC(F)F)c1C(=O)NC1CC1 [compound 208, N-cyclopropyl-2-(difluoromethoxy)-6-methoxy-4-[7-[(3-methylazetidin-3-yl)methoxy]imidazo[1,2-a]pyridin-3-yl]benzamide]
100 to 500	10 to 100	0.01 to 10	COc1cc(-c2cnc3cc(OCC4(N)CCCCC4)ccn23)cc(OC(F)F)c1C(=O)NC1CC1 [compound 169, 4-[7-[(1-aminocyclohexyl)methoxy]imidazo[1,2-a]pyridin-3-yl]-N-cyclopropyl-2-(difluoromethoxy)-6-methoxy-benzamide]
10 to 100	0.01 to 10	0.01 to 10	COc1cc(-c2cnc3cc(OCCCN4CC(C(=O)OC(C)(C)C)C4)ccn23)cc(OC(F)F)c1C(=O)NC1CC1 [compound 391, tert-butyl 1-[3-[3-[4-(cyclopropylcarbamoyl)-3-(difluoromethoxy)-5-methoxy-phenyl]imidazo[1,2-a]pyridin-7-yl]oxypropyl]azetidine-3-carboxylate]
100 to 500	100 to 500	10 to 100	COc1cc(-c2cnc3cc(OCC(=O)O)ccn23)cc(OC(F)F)c1C(=O)NC1CC1 [Cpd 396, 2-[3-[4-(cyclopropylcarbamoyl)-3-(difluoromethoxy)-5-methoxy-phenyl]imidazo[1,2-a]pyridin-7-yl]oxyacetic acid]
100 to 500	0.01 to 10	10 to 100	COc1cc(-c2cnc3cc(OCCCN4CCCCC4)ccn23)cc(OC(F)F)c1C(=O)N[C@H]1CC[C@H]1O (racemic) [compound 353, 2-(difluoromethoxy)-6-methoxy-4-[7-[3-(1-piperidyl)propoxy]imidazo [1,2-a]pyridin-3-yl]-N-[(1S,2R)-2-hydroxycyclobutyl] benzamide/2-(difluoromethoxy)-N-[(1R,2S)-2-hydroxycyclobutyl]-6-methoxy-4-[7-[3-(1-piperidyl)propoxy]imidazo[1,2-a]pyridin-3-yl]benzamide mixture]
10 to 100	0.01 to 10	0.01 to 10	COc1cc(-c2cnc3cc(OCc4noc(C)n4)ccn23)cc(OC(F)F)c1C(=O)NC1CC1 [compound 231, N-cyclopropyl-2-(difluoromethoxy)-6-methoxy-4-[7-[(5-methyl-1,2,4-oxadiazol-3-yl)methoxy]imidazo[1,2-a]pyridin-3-yl]benzamide]
10 to 100	0.01 to 10	0.01 to 10	CCOCCOc1ccn2c(-c3cc(OC)c(C(=O)NC4CC4)c(OC(F)F)c3)cnc2c1 [compound 72, N-cyclopropyl-2-(difluoromethoxy)-4-[7-(2-ethoxyethoxy)imidazo [1,2-a]pyridin-3-yl]-6-methoxy-benzamide]
> 500	0.01 to 10	0.01 to 10	COc1cc(-c2cnc3cc(OCc4cncn4C)ccn23)cc2c1C(=O)N(CC(F)(F)F)CC2 [compound 85, 8-methoxy-6-[7-[(3-methylimidazol-4-yl)methoxy]imidazo[1,2-a]pyridin-3-yl]-2-(2,2,2-trifluoroethyl)-3,4-dihydroisoquinolin-1-one]

Compound	IC50 (SIK1) [nM]	IC50 (SIK2) [nM]	IC50 (SIK3) [nM]
COc1cc(-c2cnc3cc(OCCN4C5CCC4COC5)ccn23)cc2c1C(=O)N(CC(F)(F)F)CC2 [compound 246, 8-methoxy-6-[7-[2-(3-oxa-8-azabicyclo[3.2.1]octan-8-yl)ethoxy]imidazo[1,2-a]pyridin-3-yl]-2-(2,2,2-trifluoroethyl)-3,4-dihydroisoquinolin-1-one]	100 to 500	0.01 to 10	10 to 100
